Reference: article PMC12692291, “Development and In Vitro Evaluation of [^64Cu]Cu-NOTA-TP-PSMA, a Novel Radiotheranostic Agent Against Prostate Cancer” (International Journal of Molecular Sciences, 2025)

Tests used:
HEK-293 cells [1] = assay: Nuclear localization in HEK-293 cells; assay type: cell-based, human
Procedure: To assess nuclear localization, LNCaP and HEK-293 cells were incubated with 1 MBq of [^64Cu]Cu-NOTA-TP-PSMA 1 for 24, 48, and 72 h. Nuclear extraction was performed following a previously established protocol. Following incubation, cells were lysed and fractionated using cytoskeletal buffer to isolate nuclear components. Nuclear and cytoplasmic radioactivity were measured using a HIDEX automatic gamma counter. Data were used to evaluate time-dependent nuclear accumulation of the tracer.

HEK-293 cells [2] = assay: PrestoBlue cytotoxicity assay in HEK-293 cells; assay type: cell-based, human; conditions: consistently across time points; read-out: EC50 in HEK-293 cells
Procedure: (§1) The cytotoxicity of compounds 1–3, ^natCu-NOTA-TP-PSMA, and cisplatin (platinum-based drug) were assessed with PrestoBlue, a resazurin-based method to assess mitochondrial function in LNCaP and HEK-293 cells at 24, 48, and 72 h. Effective concentration (EC50) values summarized in Table 3 were calculated from the dose–response curves of each compound (Figure S7).
(§2) Cytotoxicity was evaluated using a resazurin-based assay (PrestoBlue) in 96-well plates. LNCaP (15,000 cells/well) and HEK-293 (10,000 cells/well) were seeded and incubated for 72 h. Cells were then treated with serial dilutions of [^64Cu]Cu-NOTA-TP-PSMA and controls for 24, 48, or 72 h. After treatment, cells were rinsed with PBS and incubated with PrestoBlue reagent for 40 min. Fluorescence was measured at 570 nm (excitation) and 610 nm (emission). Background readings from blank wells were subtracted. Cell viability was calculated relative to untreated controls. IC50 values were determined using dose–response curves. Controls included [^64Cu]Cu-NOTA-TP, [^64Cu]Cu-NOTA-PSMA, ^natCu-NOTA-TP-PSMA, and cisplatin (0–500 µM in 0.9% saline). All assays were performed in triplicate and all data presented in Results are the average of three independent experiments. TP conjugates were dissolved in 1% DMSO and diluted in saline. Inhibitory concentration 50 (IC50) values were calculated to quantify the effectiveness of the compounds.

HEK-293 cells [3] = assay: Efflux (retention) study in HEK-293 cells; assay type: cell-based, human; conditions: Table S3 second part (HEK-293)
Procedure: (§3) Efflux studies were conducted by incubating the cells with the compound for an initial period of 1 h, after which the incubation medium was replaced with fresh, compound-free medium. The retained intracellular radioactivity was then measured at various time points up to 24 h and expressed as the percentage of retention relative to the 0-h time point, defined as the time immediately after medium replacement.

[4] = In vitro plasma stability and plasma protein binding; assay type: in vitro ADME; conditions: mouse plasma, 37 °C, 24 h
Procedure: The in vitro plasma stability of [^64Cu]Cu-NOTA-TP-PSMA 1 was evaluated by incubating […] of the radiolabeled compound (in 250 μL PBS) with 250 μL of freshly collected mouse plasma at 37 °C for up to 24 h. At predefined time points, (1 h, 4 h and 24 h) plasma proteins were precipitated by adding ethanol (1:1, v/v) in two successive steps, followed by vortexing (1 min) and centrifugation at 7000 rpm for 10 min. The resulting supernatant was subjected to ultracentrifugation to ensure complete removal of particulate matter.
For assessment of in vitro stability, the clarified supernatant was analyzed by radio-instant thin-layer chromatography (radio-iTLC) on C18 silica gel plates, using 0.1 M sodium citrate buffer (pH 5.5) as the mobile phase. Radiodetection was performed using an Instant Imager system (BioScan, Washington, DC, USA). Free [^64Cu]Cu(OAc)2 and intact [^64Cu]Cu-NOTA-TP-PSMA served as controls to facilitate peak identification. Under these chromatographic conditions, the radiolabeled complex remained at the origin, while free copper migrated with the solvent front (Figure S5).
To quantify the extent of protein binding, radioactivity in both the protein pellet and the supernatant was measured using a dose calibrator. The percentage of protein-bound radioactivity was calculated by comparing the activity in the precipitated fraction relative to the total recovered activity. […]

LNCaP cells [5] = assay: Efflux (retention) study in LNCaP cells; assay type: cell-based; conditions: Table S3 first part (LNCaP)
Procedure: as §3

LNCaP cells [6] = assay: Cellular uptake and internalization in LNCaP cells; assay type: cell-based
Procedure: LNCaP cells (1 × 10^5 cells/well) were seeded into 24-well plates and incubated for 72 h. Cells were treated with 1nM [^64Cu]Cu-NOTA-TP-PSMA or control monomers ([^64Cu]Cu-NOTA-TP and [^64Cu]Cu-NOTA-PSMA), each containing 0.1 MBq of radioactivity in RPMI-1640 medium.
Uptake and internalization were assessed at multiple time points (30 min to 24 h). At each timepoint, cells were washed with cold PBS, detached with trypsin, and counted using a hemocytometer. For internalization studies, surface-bound radioactivity was removed using 50 mM glycine-HCl buffer (pH 2.2) for 5 min, followed by additional PBS washes.
To investigate the internalization mechanism, parallel experiments were conducted at 4 °C to evaluate passive versus active uptake. Receptor specificity was assessed via blocking assays using 1 µM ^natCu-NOTA-TP-PSMA (1000-fold excess) co-incubated with 1 nM radiolabeled tracer. Post-incubation, intracellular radioactivity was quantified using a HIDEX gamma counter. All results were normalized to 10^6 cells and expressed as percent counts per minute per million cells (%CPM/10^6 cells).

LNCaP cells [7] = assay type: cell-based; conditions: LNCaP, 24 h
Procedure: as §1, §2

For `O=C(O)CC[C@H](NC(=O)N[C@@H](CCCCNC(=O)[C@@H](Cc1ccc2ccccc2c1)NC(=O)C1CCC(CNC(=O)C(CCCCNC(=O)c2cc3[n+]4c(c2)-c2cccc[n+]2[Pt-2]4([Cl])[n+]2ccccc2-3)NC(=O)COCCOCCNC(=O)CN2CCN3CCN(CC2)CC(=O)[O][64Cu][O]C(=O)C3)CC1)C(=O)O)C(=O)O` (stereo partly shown) [[^64Cu]Cu-NOTA-TP-PSMA 1], which “Nuclear uptake HEK-293” value (HEK-293 cells [1]; Table S4, 24 h) is on record?
The value was 0.08 ± 0.05 %ID/10⁶ cells.

And the “Nuclear uptake HEK-293” value (HEK-293 cells [1]; Table S4, 48 h)?
Its value is 0.15 ± 0.06 %ID/10⁶ cells.

What about the “Nuclear uptake HEK-293” value (HEK-293 cells [1]; Table S4, 72 h) of the same compound?
The value was 0.85 ± 0.84 %ID/10⁶ cells.

And the EC50 (HEK-293 cells [2])?
Its EC50 is > 250 nM.

What about the Retained activity (HEK-293 cells [3]; 0 h after medium replacement) of the same compound?
Its Retained activity is 100 ± 0 %CPM/106 cells.

What about the Retained activity (HEK-293 cells [3]; 1 h) of the same compound?
Its Retained activity is 97.8 ± 4.3 %CPM/106 cells.

And the Retained activity (HEK-293 cells [3]; 2 h)?
The Retained activity was 62.6 ± 18.6 %CPM/106 cells.

What about the Retained activity (HEK-293 cells [3]; 4 h) of the same compound?
The Retained activity was 41.5 ± 9.9 %CPM/106 cells.

What about the Retained activity (HEK-293 cells [3]; 24 h) of the same compound?
The Retained activity was 17.1 ± 1.9 %CPM/106 cells.

What about the “free 64Cu2+ in protein-free supernatant (radio-iTLC)” value [4] of the same compound?
Its value is “no evidence of free ^64Cu^2+”.

And the “total radioactivity bound to plasma proteins” value [4]?
Its value is “approximately 91%”.

What about the Retained activity (LNCaP cells [5]; 0 h after medium replacement) of the same compound?
The Retained activity was 100 ± 0 %CPM/106 cells.

And the Retained activity (LNCaP cells [5]; 1 h)?
The Retained activity was 85.36 ± 11.10 %CPM/106 cells.

What about the Retained activity (LNCaP cells [5]; 2 h) of the same compound?
The Retained activity was 71.36 ± 13.48 %CPM/106 cells.

And the Retained activity (LNCaP cells [5]; 4 h)?
The Retained activity was 67.8 ± 9.3 %CPM/106 cells.

What about the Retained activity (LNCaP cells [5]; 24 h) of the same compound?
Its Retained activity is 51.7 ± 9.4 %CPM/106 cells.

And the “internalization fold greater in LNCaP than HEK-293” value (LNCaP cells [6]; 24 h)?
The value was “approximately 6 fold”.

And the “uptake fold greater in LNCaP than HEK-293” value (LNCaP cells [6]; 24 h)?
Its value is “approximately 8 fold”.

And the “fold decrease of internalization/uptake at 4 °C versus 37 °C” value (LNCaP cells [6]; LNCaP)?
Its value is ~ 10 fold.

And the “Internalization at 4 °C” value (LNCaP cells [6]; LNCaP, 4 °C, 24 h)?
The value was 3.9 ± 0.5 %CPM/10^6 cells.

What about the Internalization (LNCaP cells [6]; LNCaP, 24 h, 37 °C, 1 nM) of the same compound?
Its Internalization is 44.9 ± 7.3 %CPM/10^6 cells.

What about the Uptake (LNCaP cells [6]; LNCaP, 24 h, 37 °C, 1 nM) of the same compound?
The Uptake was 65.9 ± 8.6 %CPM/10^6 cells.

What about the “fold decrease of internalization/uptake at 4 °C versus 37 °C” value (LNCaP cells [6]; LNCaP, listed as [^64Cu]Cu-NOTA-TP-PSMA) of the same compound?
Its value is > 10 fold.

And the Uptake (LNCaP cells [6]; Table S1, LNCaP, 1 h)?
The Uptake was 16.52 ± 5.38 %ID/10⁶ cells.

And the Uptake blockage (LNCaP cells [6]; Table S1, LNCaP, 1 h, 1 µM natCu-NOTA-TP-PSMA (1000-fold excess))?
Its Uptake blockage is 11.06 ± 5.93 %ID/10⁶ cells.

What about the Uptake blockage (LNCaP cells [6]; Table S1, LNCaP, 2 h, 1000-fold excess blocking) of the same compound?
The Uptake blockage was 16.36 ± 7.23 %ID/10⁶ cells.

What about the Uptake (LNCaP cells [6]; Table S1, LNCaP, 4 h) of the same compound?
Its Uptake is 44.61 ± 16.49 %ID/10⁶ cells.

And the Uptake blockage (LNCaP cells [6]; Table S1, LNCaP, 4 h, 1000-fold excess blocking)?
Its Uptake blockage is 18.70 ± 10.46 %ID/10⁶ cells.

And the Uptake (LNCaP cells [6]; Table S1, LNCaP, 20 h)?
Its Uptake is 62.88 ± 9.10 %ID/10⁶ cells.

And the Uptake blockage (LNCaP cells [6]; Table S1, LNCaP, 20 h, 1000-fold excess blocking)?
Its Uptake blockage is 30.68 ± 11.43 %ID/10⁶ cells.

What about the Uptake (LNCaP cells [6]; Table S1, LNCaP, 24 h) of the same compound?
The Uptake was 65.87 ± 8.37 %ID/10⁶ cells.

What about the Uptake blockage (LNCaP cells [6]; Table S1, LNCaP, 24 h, 1000-fold excess blocking) of the same compound?
Its Uptake blockage is 37.00 ± 13.09 %ID/10⁶ cells.

What about the “Internalization LNCaP” value (LNCaP cells [6]; Table S2, 1 h) of the same compound?
Its value is 11.91 ± 5.75 %ID/10⁶ cells.

And the “Uptake LNCaP” value (LNCaP cells [6]; Table S2, 1 h)?
Its value is 16.52 ± 5.53 %ID/10⁶ cells.

And the “Internalization LNCaP” value (LNCaP cells [6]; Table S2, 2 h)?
The value was 17.07 ± 6.19 %ID/10⁶ cells.

What about the “Uptake LNCaP” value (LNCaP cells [6]; Table S2, 2 h) of the same compound?
Its value is 28.67 ± 9.74 %ID/10⁶ cells.

What about the “Internalization LNCaP” value (LNCaP cells [6]; Table S2, 4 h) of the same compound?
Its value is 30.27 ± 8.92 %ID/10⁶ cells.

What about the “Uptake LNCaP” value (LNCaP cells [6]; Table S2, 4 h) of the same compound?
Its value is 44.61 ± 16.99 %ID/10⁶ cells.

What about the “Internalization LNCaP” value (LNCaP cells [6]; Table S2, 20 h) of the same compound?
Its value is 42.49 ± 9.41 %ID/10⁶ cells.

What about the “Uptake LNCaP” value (LNCaP cells [6]; Table S2, 20 h) of the same compound?
Its value is 62.88 ± 9.37 %ID/10⁶ cells.

And the “Internalization LNCaP” value (LNCaP cells [6]; Table S2, 24 h)?
The value was 44.94 ± 7.32 %ID/10⁶ cells.

And the “Uptake LNCaP” value (LNCaP cells [6]; Table S2, 24 h)?
The value was 65.87 ± 8.61 %ID/10⁶ cells.

What about the “fold higher internalization compared to [64Cu]Cu-NOTA-PSMA” value (LNCaP cells [6]; cancer cells (LNCaP), 24 h) of the same compound?
Its value is 2.7 fold.

What about the “fold higher internalization compared to [64Cu]Cu-NOTA-TP” value (LNCaP cells [6]; cancer cells (LNCaP), 24 h) of the same compound?
Its value is 1.2 fold.

What about the “fold more potent than monomer 2” value (LNCaP cells [7]) of the same compound?
Its value is ~ 5 fold.

And the “fold more potent than monomer 3” value (LNCaP cells [7])?
The value was ~ 16 fold.
